Test results taken from patent US20050222264A1, “Anti-rhinovirus active agents” (UNIHART CORPORATION, priority 2002, published 2005).

Legend:
Assay type in all cases: cell-based, Human Rhinoviruses
Conditions in all cases: count after 3 days
Rhinovirus H Strain [1] = assay: Plaques assay on cell mono-layers, Rhinovirus H strain, WI38
Experimental: (§1) The activity of the above compounds was evaluated in a plaque inhibition assay carried out on mono-layers of kidney cells from Rhesus monkey and from WI38 and Ohio-HeLa human cells, suitable for the propagation of Rhinoviruses M and H strains respectively. In this assay, the addition to the culture medium of an agent able to impede the viral penetration in the cells reduces the formation of microplaques compared with an untreated control culture. Therefore, the effectiveness of the test compound can be determined by counting the microplaques in treated and non-treated cultures after exposure to the virus.
• 1. prepare confluent kidney cell mono-layers from Rhesus monkeys and from human cell lines (WI 38, MRC-5 and Ohio-Hela cells) in 6.75 cm Ø Petri dishes; • 2. aspirate the growth medium; • 3. wash each dish with 10 ml of culture medium (serum-free growth medium), Earle's saline solution—lactoalbumine hydrolysate and incubate at 33° C. for 60′; • 4. aspirate the liquid; • 5. prepare serial 1:10 viral dilutions (Rhinovirus-strain M and Rhinovirus-strain H) in Earle's saline solution—lactoalbumine hydrolysate and inoculate each dish with 0.2 ml volumes of viral dilution. Each viral dilution is inoculated in duplicate. • 6. […]

Rhinovirus M Strain = assay: Plaques assay on cell mono-layers, Rhinovirus M strain, MKC-5
Experimental: as §1
(§2) • 1. prepare confluent kidney cell mono-layers from Rhesus monkeys and from human cell lines (WI 38, MRC-5 and Ohio-Hela cells) in 6.75 cm Ø Petri dishes; • 2. aspirate the growth medium; • 3. wash each dish with 10 ml of culture medium (serum-free growth medium), Earle's saline solution—lactoalbumine hydrolysate and incubate at 33° C. for 60′; • 4. aspirate the liquid; • 5. prepare serial 1:10 viral dilutions (Rhinovirus-strain M and Rhinovirus-strain H) in Earle's saline solution—lactoalbumine hydrolysate and inoculate each dish with 0.2 ml volumes of viral dilution. Each viral dilution is inoculated in duplicate. • 6. Prepare analogous serial viral dilutions (as in 5) in Earle's saline solution—lactoalbumine hydrolysate, added with the anti-viral test compound at the desired concentration. • 7. Prepare Earle's saline solution—lactoalbumine hydrolysate added with the test anti-viral compound at the desired concentration as the control (one control for each test compound). • 8. incubate the infected mono-layers at 33° C. for 60′, gently rocking the dishes at 15′ intervals in order to evenly distribute the inoculum; • 9. place the dishes on a flat surface; • 10. thoroughly add 10 ml of nutritive agar in Earle's saline solution—calf serum, equilibrated at 44° C., to each dish and allow to harden. […]

Rhinovirus H Strain [2] = assay: Plaques assay on cell mono-layers, Rhinovirus H strain, Ohio-HeLa
Experimental: as §1, §2

[3] = dilution of inoculated virus 10^−3, same molar concentration of a 12.5 γ/ml xenaldial solution
[4] = dilution of inoculated virus 10^−4, same molar concentration of a 12.5 γ/ml xenaldial solution
[5] = dilution of inoculated virus 10^−5, same molar concentration of a 12.5 γ/ml xenaldial solution

## CCOC(Nc1ccc(C(=O)O)cc1)C(=O)c1ccc(-c2ccccc2)cc1 (stereo not drawn) [Xenalamine, p-(α-ethoxy-p-phenyl-phenacylamino)-benzoic acid, reference compound]
Rhinovirus H Strain [1]; [3]
  n° of plaques in 2 dishes: 3
Rhinovirus H Strain [1]; [4]
  n° of plaques in 2 dishes: 1
Rhinovirus M Strain; [3]
  n° of plaques in 2 dishes: 4
Rhinovirus M Strain; [4]
  n° of plaques in 2 dishes: 2
Rhinovirus M Strain; [5]
  n° of plaques in 2 dishes: 1
Rhinovirus H Strain [2]; [3]
  n° of plaques in 2 dishes: 2
Rhinovirus H Strain [2]; [4]
  n° of plaques in 2 dishes: 1
Rhinovirus H Strain [2]; [5]
  n° of plaques in 2 dishes: 1
